“Also recorded” adds a separate entry of the source.
B1: RSPO4: human recombinant R-spondin 4, R&D systems catalog No. 4575-RS (protein, UniProt Q2I0M5 20-234, looked up)
R-spondin-4: LNRRKKQVGTGLGGNCTGCIICSEENGCSTCQQRLFLFIRREGIRQYGKCLHDCPPGYFGIRGQEVNRCKKCGATCESCFSQDFCIRCKRQFYLYKGKCLPTCPPGTLAHQNTRECQGECELGPWGGWSPCTHNGKTCGSAWGLESRVREAGRAGHEEAATCQVLSESRKCPIQRPCPGERSPGQKKGRKDRRPRKDRKLDRRLDVRPRQPGLQP
B2: RSPO3: human recombinant R-spondin 3, R&D systems catalog No. 3500-RS (protein, listed as Homo sapiens)
chain: MHLRLISWLFIILNFMEYIGSQNASRGRRQRRMHPNVSQGCQGGCATCSDYNGCLSCKPRLFFALERIGMKQIGVCLSSCPSGYYGTRYPDINKCTKCKADCDTCFNKNFCTKCKSGFYLHLGKCLDNCPEGLEANNHTMECVSIVHCEVSEWNPWSPCTKKGKTCGFKRGTETRVREIIQHPSAKGNLCPPTNETRKCTVQRKKCQKGERGKKGRERKRKKPNKGESKEAIPDSKSLESSKEIPEQRENKQQQKKRKVQDKQKSVSVSTVH
B3: RSPO2: human recombinant R-spondin 2, R&D systems catalog No. 3266-RS (protein, listed as Homo sapiens)
chain: MQFRLFSFALIILNCMDYSHCQGNRWRRSKRASYVSNPICKGCLSCSKDNGCSRCQQKLFFFLRREGMRQYGECLHSCPSGYYGHRAPDMNRCARCRIENCDSCFSKDFCTKCKVGFYLHRGRCFDECPDGFAPLEETMECVEGCEVGHWSEWGTCSRNNRTCGFKWGLETRTRQIVKKPVKDTILCPTIAESRRCKMTMRHCPGGKRTPKAKEKRNKKKKRKLIERAQEQHSVFLATDRANQ

Legend:
Assay type in all cases: cell-based
[1] = system: cultured human corneal endothelial cell; test: Ki-67 immunostaining and cell morphology of cultured human corneal endothelial cell treated with Hedgehog signal modulators; settings: primary human corneal endothelial cell, 2 μM cyclopamine, 3 days; for Ki-67 expression (cell proliferation) as compared with a control: 100 ng/ml rhShh, 2 μM purmorphamine
Protocol: (§1) After 3 days, immunostain of GPR49/LGR5 and Ki-67 was performed. In addition, RNA of a corneal endothelial cell incubated under the same conditions was extracted, and the amount of expression of mRNA was measured by real time PCR.

GPR49/LGR5 expression [2] = test: GPR49/LGR5 expression in human corneal tissue treated with Hedgehog signal modulators; settings: 100 ng/ml rhShh, 10 μM purmorphamine, 10 μM cyclopamine, 3 days
From the text: (§2) A corneal tissue was embedded with OCT compound (catalog No.: 4583; Sakura Finetek, Tokyo, Japan), and frozen in liquid nitrogen to prepare a frozen corneal tissue section. The frozen block was sliced to 8 μm, applied on a silane-coating slide, and air-dried. For preparing the whole tissue section, a Descemet's membrane containing a corneal endothelial cell was peeled from a corneal tissue, allowed to stand in ice-cooled 100% acetone for 30 seconds, applied on a silane-coating slide, and air-dried. As a cultured corneal endothelial cell, a cell cultured on a LabTek 8-well plastic chamber slide was used. Ice-cooled 100% acetone was added to a corneal tissue and the cultured cell, the resultant was allowed to stand at 4° C. for 15 minutes to fix the cell. After shaking and washing with 0.15% TritonX/PBS-, 1% bovine serum albumin (catalog No.: A4503BSA; Sigma-Aldrich, St. Louis, Mo.) was added, and allowed to stand at room temperature for 30 minutes to perform blocking. A primary antibody was diluted with 1% BSA, and incubated at room temperature for 1 hour. As a primary antibody to be used, anti-rabbit GPR49/LGR5 (catalog No.: GTX71143; 1: 200; GeneTex Inc., San Antonio, Tex.), anti-rabbit Nestin (catalog No.: PRB-570C; 1: 200; COVANCE, Berkeley, Calif.), anti-mouse ABCG2 (catalog No.: NC_236; 1: 2; Kamiya biomedical CO., Seattle, Wash. USA), anti-mouse Ki-67 (catalog No.: 556003; 1: 200 BD Pharmingen™ NJ, USA), anti-rabbit Na^+/K^+ ATPase (catalog No.: A132; 1: 100; Zymed), and anti-rabbit ZO1 (Zymed Laboratries Inc., South San Francisco, Calif.) were used. The resultant was washed with 0.15% Triton/PBS- twice, and PBS- once.
For extracting RNA from a corneal tissue and a cultured cell, RNeasy Mini Kit (catalog No.: 74106; QIAGEN, Valencia, Calif.) was used. Added was 1 μl of OligodT Primer (catalog No.: 18418-020; Invitrogen) per 1 μg of the extracted RNA, and the resultant was incubated at 70° C. for 2 minutes, and immediately ice-cooled. […] The resulting data were analyzed by ABI PRISM (registered trademark) 7000 Sequence Detection System. […]

GPR49/LGR5 expression [3] = test: GPR49/LGR5 expression in cultured human corneal endothelial cell treated with Hedgehog signal modulators; settings: primary human corneal endothelial cell; 100 ng/ml rhShh, 2 μM purmorphamine, 2 μM cyclopamine; 3 days
Protocol: as §1

[4] = system: human corneal endothelial cell; test: Ki67 immunostaining of human corneal endothelial cells incubated with RSPO1 to 4
From the text: as §2
A secondary antibody was diluted with a mixed solution of 1% BSA and 0.15% TrironX/PBS-, and incubated at room temperature for 30 minutes. As a secondary antibody to be used, Alexa™ Fluor 488-labeled (conjugated) goat anti-rabbit IgG (catalog No.: A11034; 1: 1500; Molecular Probe-Invitrogen) and Alexa™ Fluor 488-labeled (conjugated) goat anti-mouse IgG (catalog No.: A11029; 1: 1500; Molecular Probe-Invitrogen) were used. The secondary antibody was shaken and washed with 0.15% Triton/PBS- twice, and PBS- once, subjected to nuclear staining with propidium iodide (catalog No.: SP29004-41; PI; Nacalai Tesque, Inc. Kyoto, Japan), and embedded while covered with a cover glass.
In order to investigate a relationship between R-sporadin 1 (RSPO1), R-spondin 2 (RSPO2), R-spondin 3 (RSPO3), or R-spondin 4 (RSPO4) and differentiation of a corneal endothelial cell, the relationship was studied using RSPO1. Reagents used are as follows. • RSPO1 R&D systems catalog No.: 4645-RS • RSPO2 R&D systems catalog No.: 3266-RS • RSPO3 R&D systems catalog No.: 3500-RS • RSPO4 R&D systems catalog No.: 4575-RS
Then, for the purpose of investigating the influence of RSPO on cell proliferation, RSPO1 to 4 were incubated into a human corneal endothelial cell under conditions of 37° C. and 5% CO2 for 1 day. Thereafter, Ki-67 being a cell proliferation marker was immunostained.

Molecule	Ki-67 expression (cell proliferation) as compared with a control [1]	expression of GPR49/LGR5 as compared with a control (immunostaining; same result at the mRNA expression level) (GPR49/LGR5 expression [2])	also measured
CC1=C2C[C@H]3[C@@H](CC=C4C[C@@H](O)CC[C@@]43C)[C@@H]2CC[C@]12O[C@@H]1C[C@H](C)CN[C@H]1[C@H]2C [cyclopamine]	suppression of cell proliferation; also recorded: not upregulated	clear expression suppression	cell morphology [1]: abnormality of cell morphology; also recorded: could not maintain a normal hexagonal form
c1ccc2c(Oc3nc(Nc4ccc(N5CCOCC5)cc4)c4ncn(C5CCCCC5)c4n3)cccc2c1 [purmorphamine, N-(4-morpholinophenyl)-2-(1-naphthyloxy)-9-cyclohexyl-9H-purine-6-amine]	elevated; also recorded: upregulated	remarkable increase (upregulation)	
rhShh: recombinant human Sonic hedgehog, ligand of the Hedgehog pathway binding to Ptch1	elevated	remarkable increase (upregulation)	Ki-67 expression (cell proliferation) as compared with a control ([1]; listed as SHH): upregulated; cell expressing GPR49/LGR5 (GPR49/LGR5 expression [3]): confirmed
B1			Ki67-positive cell rate as compared with a control ([4]; RSPO4 50 ng/ml, 500 ng/ml (FIG. 14)): slightly increased
B2			Ki67-positive cell rate as compared with a control ([4]; RSPO3 50 ng/ml, 200 ng/ml (FIG. 13)): slightly increased
B3			Ki67-positive cell rate as compared with a control ([4]; RSPO2 50 ng/ml, 100 ng/ml (FIG. 12)): slightly increased

Source: US9616101B2, “Differentiation marker and differentiation control of eye cell” (Kyoto Prefectural Public University Corporation, priority 2012, dated 2017)
